{"source": "patent US20130189186A1", "about": "“APOPTOSIS IMAGING AGENTS BASED ON LANTIBIOTIC PEPTIDES” (GE HEALTHCARE LIMITED, priority 2010, published 2013)", "system": "phosphatidyl ethanolamine", "assay": "Biacore affinity for phosphatidyl ethanolamine (POPE/POPC liposomes captured on L1 chip)", "assay_type": "binding", "settings": "Biacore 3000, L1 chip, POPE/POPC liposomes (20% PE)", "from_the_text": "A Biacore 3000 (GE Healthcare, Uppsala) was equipped with an L1 chip. Liposomes made of POPE/POPC (20% PE) were applied for the affinity study using the capture technique recommended by the manufacturer. Each run consisted of activation of the chip surface, immobilization of liposomes, binding of peptide and wash off of both liposomes and peptide (regeneration). Similar applications can be found in Frostell-Karlsson et al [Pharm. Sciences, V.94 (1), (2005)]. Thorough washing of needle, tubing and liquid handling system with running buffer was performed after each cycle.\nBIACORE software: The BIACORE control software including all method instructions was applied. A method with commands was also written in the BIACORE Method Definition Language (MDL) to have full control over pre-programmed instructions. BIACORE evaluation software was applied for analysing the sensorgrams.", "data": [{"substance": "Duramycin", "values": [{"measurement": "ka", "result": "~20000", "unit": "M⁻¹ s⁻¹"}]}]}
